Experimental data published in US9695155B2, “Herbicidal substituted pyrimidinyloxy benzene compounds” (E. I. DU PONT DE NEMOURS AND COMPANY, priority 2013, dated 2017).

Assays:
Experiment in all cases: Test C preemergence
[1] = system: ragweed; format: in vivo, Ambrosia elatior; settings: preemergence
In short: (§1)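 Plants were kept under greenhouse conditions for 13–15 days following spray. Pre-emergent application went to soil (loam–sand), post-emergent to foliage at 1–4 leaves. Evaluation: visual, percent control against untreated checks.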

[2] = system: velvetleaf; format: in vivo, Abutilon theophrasti; settings: preemergence
In short: as §1

[3] = system: giant foxtail; format: in vivo, Setaria faberii; settings: for Foxtail, Giant plant response rating: preemergence
Source text: (§2) Seeds of plant species selected from blackgrass (Alopecurus myosuroides), Italian ryegrass (Lolium multiflorum), wheat, winter (winter wheat, Triticum aestivum), galium (catchweed bedstraw, Galium aparine), corn (Zea mays), large (Lg) crabgrass (Digitaria sanguinalis), giant foxtail (Setaria faberii), johnsongrass (Sorghum halepense), lambsquarters (Chenopodium album), morningglory (Ipomoea coccinea), yellow nutsedge (Cyperus esculentus), pigweed (Amaranthus retroflexus), ragweed (common ragweed, Ambrosia elatior), soybean (Glycine max), barnyardgrass (Echinochloa crus-galli), oilseed rape (Brassica napus), waterhemp (common waterhemp, Amaranthus rudis), kochia (Kochia scoparia), wild oat (Avena fatua), surinam grass (Brachiaria decumbens), foxtail, green (green foxtail, Setaria viridis), goosegrass (Eleusine indica), bromegrass, downy (downy bromegrass, Bromus tectorum), nightshade (eastern black nightshade, Solanum ptycanthum), cocklebur (common cocklebur, Xanthium strumarium), cupgrass, woolly (woolly cupgrass, Eriochloa villosa), bermudagrass (Cynodon dactylon), sunflower, (common oilseed sunflower, Helianthus annuus), Russian thistle (Salsola kali), and velvetleaf (Abutilon theophrasti) were planted into a blend of loam soil and sand and treated preemergence with test chemicals formulated in a non-phytotoxic solvent mixture which included a surfactant.
(§3) At the same time, plants selected from these crop and weed species and also barley, winter (winter barley, Hordeum vulgare), windgrass (Apera spica-venti), chickweed (common chickweed, Stellaria media), deadnettle (henbit deadnettle, Lamium amplexicaule), and canarygrass (littleseed canarygrass, Phalaris minor) were planted in pots containing Redi-Earth® planting medium (Scotts Company, 14111 Scottslawn Road, Marysville, Ohio 43041) comprising spaghnum peat moss, vermiculite, wetting agent and starter nutrients and treated with postemergence applications of test chemicals formulated in the same manner. Plants ranged in height from 2 to 18 cm (1- to 4-leaf stage) for postemergence treatments. Treated plants and controls were maintained in a greenhouse for 13 to 15 days, after which time all species were compared to controls and visually evaluated. Plant response ratings, summarized in Table C, are based on a scale of 0 to 100 where 0 is no effect and 100 is complete control. A dash (-) response means no test result.

[4] = system: corn; format: in vivo, Zea mays; settings: for Corn plant response rating: preemergence
In short: as §1

[5] = system: galium; format: in vivo, Galium aparine; settings: for Galium plant response rating: preemergence
Source text: as §2, §3

[6] = system: johnsongrass; format: in vivo, Sorghum halepense; settings: preemergence
In short: as §1

[7] = system: blackgrass; format: in vivo, Alopecurus myosuroides; settings: for Blackgrass plant response rating: preemergence
In short: as §1

[8] = system: barnyardgrass; format: in vivo, Echinochloa crus-galli; settings: for Barnyardgrass plant response rating: preemergence
Source text: as §2, §3

[9] = system: morningglory; format: in vivo, Ipomoea coccinea; settings: preemergence
Source text: as §2, §3

[10] = system: oilseed rape; format: in vivo, Brassica napus; settings: preemergence
Source text: as §2, §3

[11] = system: Italian ryegrass; format: in vivo, Lolium multiflorum; settings: preemergence
In short: as §1

[12] = system: lambsquarters; format: in vivo, Chenopodium album; settings: preemergence
In short: as §1

[13] = system: wheat, winter; format: in vivo, Triticum aestivum; settings: preemergence
Source text: as §2, §3

[14] = system: soybean; format: in vivo, Glycine max; settings: preemergence
In short: as §1

[15] = 16 g ai/ha, scale 0 to 100 (0 no effect, 100 complete control)
[16] = 62 g ai/ha, scale 0 (no effect) to 100 (complete control)
[17] = 125 g ai/ha, scale 0 (no effect) to 100 (complete control)
[18] = Preemergence, 31 g ai/ha, scale 0 to 100, 0 no effect, 100 complete control

FC(F)c1cccc(Oc2ncc(Cl)cn2)c1-n1cc(C(F)(F)F)cn1 [Compound 170]
Ragweed plant response rating [1, 15]: 85 | Ragweed plant response rating [1, 16]: 55 | Ragweed plant response rating [1, 17]: 65 | Velvetleaf plant response rating [2, 15]: 25 | Velvetleaf plant response rating [2, 16]: 80 | Velvetleaf plant response rating [2, 17]: 100 | Foxtail, Giant plant response rating [3, 15]: 80 | Foxtail, Giant plant response rating [3, 16]: 98 | Foxtail, Giant plant response rating [3, 17]: 100 | Plant response rating, Foxtail, Giant [3, 18]: 85 | Corn plant response rating [4, 15]: 0 | Corn plant response rating [4, 16]: 15 | Corn plant response rating [4, 17]: 40 | Plant response rating, Corn [4, 18]: 5 | Galium plant response rating [5, 15]: 95 | Galium plant response rating [5, 16]: 100 | Galium plant response rating [5, 17]: 100 | Plant response rating, Galium [5, 18]: 98 | Johnsongrass plant response rating [6, 15]: 0 | Johnsongrass plant response rating [6, 16]: 70 | Johnsongrass plant response rating [6, 17]: 85 | Blackgrass plant response rating [7, 15]: 0 | Blackgrass plant response rating [7, 16]: 90 | Blackgrass plant response rating [7, 17]: 90 | Plant response rating, Blackgrass [7, 18]: 80 | Barnyardgrass plant response rating [8, 15]: 10 | Barnyardgrass plant response rating [8, 16]: 100 | Barnyardgrass plant response rating [8, 17]: 100 | Plant response rating, Barnyardgrass [8, 18]: 55 | Morningglory plant response rating [9, 15]: 0 | Morningglory plant response rating [9, 16]: 40 | Morningglory plant response rating [9, 17]: 100 | Oilseed Rape plant response rating [10, 15]: 70 | Oilseed Rape plant response rating [10, 16]: 98 | Oilseed Rape plant response rating [10, 17]: 95 | Ryegrass, Italian plant response rating [11, 15]: 5 | Ryegrass, Italian plant response rating [11, 16]: 75 | Ryegrass, Italian plant response rating [11, 17]: 90 | Lambsquarters plant response rating [12, 15]: 90 | Lambsquarters plant response rating [12, 16]: 100 | Lambsquarters plant response rating [12, 17]: 100 | Wheat plant response rating [13, 15]: 0 | Wheat plant response rating [13, 16]: 20 | Wheat plant response rating [13, 17]: 60 | Soybean plant response rating [14, 15]: 5 | Soybean plant response rating [14, 16]: 45 | Soybean plant response rating [14, 17]: 55
